Data on six compounds can be found in patent US4925844A, “Antagonizing the pharmacological effects of a benzodiazepine receptor agonist” (ICI Americas Inc., priority 1989, dated 1990).

The test system of data set [1] is benzodiazepine receptors. The note with it: general statement on how activity is indicated in the test; cited from earlier work.
The subject of data set [2] is rats. Put plainly: Anti-conflict activity / shock-induced suppression of drinking (SSD) test. In kind it is in vivo. The following applies: for anticonflict activity (increase in mean number of shocks taken vs vehicle controls): substance given alone; for antagonism of the anticonflict or disinhibiting activity (increase in shocks taken) of benzodiazepine agonists: oral or i.p., 0.2 to 50 mg per kg, 30 to 45 minutes before the benzodiazepine agonist. As to the method:
A modification of the method of Vogel and coworkers (1971) is used. […] In this test, benzodiazepine agonists (e.g. chlordiazepoxide) are administered either intraperitoneally (i.p.) or orally (p.o.) at 30 or 60 min., respectively, prior to the initiation of the test. […]
The mean number of shocks taken for the groups that received the test agents (benzodiazepine agonists) alone and in the presence of benzodiazepine antagonist are recorded.

The subject of data set [3] is rats. In words: Neuromuscular impairment / roto-rod test. The note with it: for neuromuscular uncoordination (ataxia) on the roto-rod: benzodiazepine agonist alone; for antagonism of diazepam-induced neuromuscular impairment on the roto-rod: oral or intraperitoneal, 30 to 45 minutes before the benzodiazepine agonist. On the procedure: Further tests may be conducted to evaluate the agonist/antagonist profile of a compound. The procedures or methods used to determine anticonflict (shock-induced suppressions of drinking test), antagonism of metrazole-induced convulsions and neuromuscular impairment (roto-rod studies) are published in Eur. J. Pharmacol. 78(3):323-333 (1980) and briefly discussed below. To determine the antagonist properties of a test compound, subjects are treated with test agent intraperitoneally or orally at selected intervals prior to or following treatment with a benzodiazepine agonist, and are then tested under the appropriate test conditions.
A roto-rod test (Rinnard and Car, J. Pharmacol. and Exp. Therap. 121:354 (1957)) which measures the rat's muscle tone and ability to perform coordinated locomotor tasks may be used to evaluate a test compound's antagonist properties. In the roto-rod test, rats are trained to maintain themselves for at least 1 min on a rotating rod (6 r.p.m.). Subjects are treated with a test compound and are retested for their ability to maintain themselves on the roto-rod at 30 and 60 min. post-drug administration. Subjects that fail to stay on the rod for a one-minute period are considered to be neuromuscularly impaired (ataxia) and the ED50 (that dose which would be expected to produce ataxia in 50% of the rats tested) is calculated. […] The benzodiazepine antagonists may also be administered immediately prior to, or immediately after, the benzodiazepine agonist in this test.
(The rotarod test checks motor coordination on a turning rod.)

In data set [4] the test system is metrazole-induced convulsions. In words: Antagonism of metrazole-induced convulsions (anticonvulsant activity). In kind it is in vivo. The note with it: substance given alone.
Method: Further tests may be conducted to evaluate the agonist/antagonist profile of a compound. […] To determine the antagonist properties of a test compound, subjects are treated with test agent intraperitoneally or orally at selected intervals prior to or following treatment with a benzodiazepine agonist, and are then tested under the appropriate test conditions.
Data set [5] relates to male Wistar rats. Put plainly: Overt toxicity after intraperitoneal dosing. It counts as in vivo. An excerpt: In general, the compound 4-amino-8-phenyl-N-propyl-3-cinnolinecarboxamide is believed to be able to antagonize the effects of benzodiazepine receptor agonists and will be useful whenever such antagonism is desired.
Data set [6] has as its system benzodiazepine receptors. In words: [3H]-flunitrazepam binding test (FNB test). The note with it: at a tested concentration of 500 nanomolar or less; rat cerebral cortex P2 membranes.

Take `CCCCNc1c(C(=O)OCC)cnc2c1cnn2CC` [cartazolate]: the “effect on flunitrazepam binding (displacement or enhancement)” value in data set [1] is “enhancement of the binding”.

For `CNC1=Nc2ccc(Cl)cc2C(c2ccccc2)=[N+]([O-])C1` [chlordiazepoxide], in data set [2] (rats, oral dose of 18 mg per kg chlordiazepoxide alone), the “mean number of shocks taken as compared to vehicle controls” value is “significant increases”. For the same compound, in data set [2], the “anticonflict activity (increase in mean number of shocks taken vs vehicle controls)” value is “significant (P<0.05) anticonflict activity”. The “neuromuscular uncoordination (ataxia) on the roto-rod” value in data set [3] is given as “produce neuromuscular uncoordination (ataxia) at relatively low doses”.

Turning to `CN1C(=O)CN=C(c2ccccc2)c2cc(Cl)ccc21` [diazepam], the “anticonflict activity (increase in mean number of shocks taken vs vehicle controls)” value in data set [2] is “significant (P<0.05) anticonflict activity”. The “neuromuscular uncoordination (ataxia) on the roto-rod” value in data set [3] is reported as “produce neuromuscular uncoordination (ataxia) at relatively low doses”.

Turning to `CCOC(=O)c1ncn2c1CN(C)C(=O)c1cc(F)ccc1-2` [ethyl 8-fluoro-5,6-dihydro-5-methyl-6-oxo-4H-imidazo(1,5a)(1,4)benzodiazepine-3-carboxylate], the “antagonism of the anticonflict or disinhibiting activity (increase in shocks taken) of benzodiazepine agonists” value in data set [2] is listed as “antagonized”. Also, in data set [3], the “antagonism of diazepam-induced neuromuscular impairment on the roto-rod” value was “antagonized”.

Turning to `CCCNC(=O)c1nnc2c(-c3ccccc3)cccc2c1N` [formula Ia, 4-amino-8-phenyl-N-propyl-3-cinnolinecarboxamide], in data set [2], the “antagonism of the anticonflict or disinhibiting activity (increase in shocks taken) of benzodiazepine agonists” value is reported as “antagonized” and the “anticonflict activity (increase in mean number of shocks taken vs vehicle controls)” value is “does not exhibit”. Also, the “mean number of shocks taken (reversal of chlordiazepoxide effect)” value in data set [2] (rats, oral 1.25 mg per kg five minutes prior to 18 mg per kg oral chlordiazepoxide) is “did not exhibit a significant increase”. In addition, the “anticonvulsant activity typical of benzodiazepine agonists” value in data set [4] is “does not exhibit”. For the same compound, the toxicological problems result in data set [5] (at several multiples of a therapeutic dose) was “has not exhibited toxicological problems”. Also, in data set [5] (male Wistar rats, intraperitoneal dose of 50 mg per kg), the overt toxic effects entry is “no overt toxic effects”. In addition, in data set [3], the “antagonism of diazepam-induced neuromuscular impairment on the roto-rod” value is given as “antagonized”. The “neuromuscular impairment (reversal of diazepam effect; ability to remain on the roto-rod)” value in data set [3] (rats, intraperitoneal 1.25 mg per kg five minutes after 20 mg per kg intraperitoneal diazepam) is listed as “did not exhibit significant neuromuscular impairment”. The “displacement of specific [3H]-flunitrazepam binding” value in data set [6] was not below 50%.

In the case of `CCCCNc1c(C(=O)OCC)c(C)nc2c1cnn2CC` [tracazolate], the “effect on flunitrazepam binding (displacement or enhancement)” value in data set [1] is given as “enhancement of the binding”.
